Target: T1, Ubiquitin carboxyl-terminal hydrolase 28 (Homo sapiens, UniProt Q96RU2)
T1 sequence (Q96RU2 whole entry): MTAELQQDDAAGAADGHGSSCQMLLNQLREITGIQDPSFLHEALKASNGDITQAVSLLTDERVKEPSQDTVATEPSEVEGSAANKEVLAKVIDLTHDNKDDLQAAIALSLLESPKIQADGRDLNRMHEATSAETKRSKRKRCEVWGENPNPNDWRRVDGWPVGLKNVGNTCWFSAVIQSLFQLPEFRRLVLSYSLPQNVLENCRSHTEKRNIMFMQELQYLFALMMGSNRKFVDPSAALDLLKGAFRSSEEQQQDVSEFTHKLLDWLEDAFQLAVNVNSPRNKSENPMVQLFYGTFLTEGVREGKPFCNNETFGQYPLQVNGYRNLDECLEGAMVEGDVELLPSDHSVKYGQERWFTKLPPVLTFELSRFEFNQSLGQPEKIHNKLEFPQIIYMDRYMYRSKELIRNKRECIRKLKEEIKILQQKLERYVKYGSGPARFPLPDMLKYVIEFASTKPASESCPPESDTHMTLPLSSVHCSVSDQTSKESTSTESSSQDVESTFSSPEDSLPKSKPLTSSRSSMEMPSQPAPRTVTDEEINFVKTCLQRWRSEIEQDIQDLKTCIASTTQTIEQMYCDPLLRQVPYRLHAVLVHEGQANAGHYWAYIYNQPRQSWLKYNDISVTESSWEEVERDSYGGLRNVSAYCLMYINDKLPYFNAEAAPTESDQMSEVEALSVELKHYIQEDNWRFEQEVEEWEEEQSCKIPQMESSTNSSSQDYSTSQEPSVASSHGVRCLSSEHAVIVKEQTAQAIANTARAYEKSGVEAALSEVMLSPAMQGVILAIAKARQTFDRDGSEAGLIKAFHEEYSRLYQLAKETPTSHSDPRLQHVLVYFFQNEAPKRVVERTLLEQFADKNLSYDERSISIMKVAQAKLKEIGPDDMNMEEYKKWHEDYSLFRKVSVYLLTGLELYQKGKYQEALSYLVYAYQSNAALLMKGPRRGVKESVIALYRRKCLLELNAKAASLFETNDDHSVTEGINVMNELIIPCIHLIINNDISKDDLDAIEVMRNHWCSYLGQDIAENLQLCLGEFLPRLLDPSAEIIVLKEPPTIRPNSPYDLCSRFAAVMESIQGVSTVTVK
Experiment: Biochemical Assay: Ubiquitin-Rhodamine 110 Assay for USP28 Activity: Each assay was performed in a final volume of 20 μL in assay buffer containing 20 mM Tris-HCl (pH 8.0, (1M Tris-HCl, pH 8.0 solution; Corning 46-031-CM)), 2 mM CaCl2 (1M Calcium Chloride solution; Sigma #21114) 2 mM BME (2-Mercaptoethanol; Sigma 63689-25ML-F), 0.01% Prionex (0.22 μM filtered, Sigma #G-0411), and 0.01% Triton X-100. Stock compound solutions were stored at −20° C. as 10 mM in DMSO. Up to 1 month prior to the assay, 2 mM test compounds were pre-dispensed into assay plates (Black, low volume; Corning #3820) and frozen at −20° C. Prestamped assay plates were allowed to come to room temperature on the day of the assay. For the screen, 100 nL of 2 mM was pre-dispensed for a final screening concentration of 10 μM (DMSO(fc)=0.5%). […]

With `Cc1cnc2c(N)c(C(=O)NCCc3ccc(N4CC5CCC(C4)N5)cc3)sc2n1` the IC50 was < 200 nM.

Reference: ChEMBL document CHEMBL5729103, “Thienopyrazine carboxamides as ubiquitin-specific protease inhibitors” (2022)
